Assay results taken from ChEMBL document CHEMBL5385957, “Pleonotoquinones, Cytotoxic Oxepinenaphthoquinones from Pleonotoma jasminifolia” (J Nat Prod, 2024).

Experiments:
HCT-116 = experiment: Cytotoxicity against human HCT-116 cells assessed as cell growth inhibition; type: functional, cell-based
HepG2 = experiment: Cytotoxicity against human HepG2 cells assessed as cell growth inhibition; type: functional, cell-based
[1] = Cytotoxicity against human MRC5 cells assessed as cell growth inhibition; type: toxicity, cell-based
[2] = Selectivity index, ratio of IC50 for human MRC5 cells to IC50 for human HCT-116 cells; type: toxicity; conditions: MRC5 cells versus HCT-116 cells, read-out: Ratio IC50
[3] = Selectivity index, ratio of IC50 for human MRC5 cells to IC50 for human HepG2 cells; type: toxicity; conditions: MRC5 cells versus HepG2 cells, read-out: Ratio IC50

SMILES | IC50 (HCT-116) | IC50 (HepG2) | IC50 [1] | selectivity ratio [2] | selectivity ratio [3]
COc1ccc2c(c1OC)C(=O)c1cc(C)ccc1C2=O | > 10 µM | > 10 µM | > 10 µM |  | 
COc1cccc2c1C(=O)c1c(O)c3c(c(O)c1C2=O)C[C@@](O)(C(=O)CO)C[C@@H]3O[C@H]1C[C@H](N)[C@H](O)[C@H](C)O1 [DOXORUBICIN] |  | 0.7 µM | 3.5 µM |  | 
COc1c(O)ccc2c(=O)c3cccc(C)oc=3c(=O)c12 | 2.6 µM | 1.9 µM | 8.2 µM | 3.1 | 4.1
COc1ccc2c(=O)c3cccc(C)oc=3c(=O)c2c1OC | 4.3 µM | 6.4 µM | > 10 µM | 2.9 | 1.9
COc1c(O)ccc2c1C(=O)c1cc(C)ccc1C2=O | > 10 µM | > 10 µM | > 10 µM |  | 
